The record followed here is PubChem BioAssay AID488890 (Southern Research Specialized Biocontainment Screening …, 2010).

This test has as its system Mycobacterium tuberculosis non-replicating, growth inhibition. The test can be described thus: growth inhibition of non-replicating M. tuberculosis (AID 488890).

Results filed as inconclusive are left out. The source made the active and inactive calls. How the calls were made is not given here.

As for `COc1ccc(NC(=O)c2ccc(-c3ccc([N+](=O)[O-])cc3)o2)cc1OC`, the IC50 was 3.93 µM.

In the case of `Oc1c(Cl)cc(CN2CCOCC2)c2cccnc12`, the IC50 was 2.53 µM.

For `CCOC(=O)c1c(C)nc2c3ccccc3ccn12`, the IC50 is 13.3 µM (inactive).

On to `CC1CCC/C(=C\Nc2ccc(C(=O)O)c(O)c2)C1=O` (centres undefined), for which the IC50 was below 0.1 µM.

With `CC1=NN(C(=O)c2ccc(Cn3nc(C)c(Br)c3C)cc2)C(O)(C(F)(F)F)C1` (centres undefined), the IC50 was 0.58 µM.

For the compound `Cc1ccc2nc(CCc3nc4ccc(C)cc4[nH]3)[nH]c2c1`, the IC50 was 17.1 µM (inactive).

On to `CC(C)(C)c1cc(C(=O)N/N=C/c2ccc([N+](=O)[O-])s2)n[nH]1`, for which the IC50 was 5.5 µM.

Turning to `O=C(OCn1nnc2ccccc2c1=O)C1CCCCC1`, the IC50 is 22 µM (inactive).

With `COC(=O)CCCC(=O)N1CCCC(C(=O)c2ccc(-c3ccccc3)cc2)C1` (centres undefined), the IC50 was 35.8 µM (inactive).

For the compound `CC1=NNC(=O)/C1=C\c1cn(-c2ccccc2)nc1-c1ccccc1`, the IC50 is 7.73 µM.

In the case of `Cc1ccc(-c2cc(C(F)(F)F)n3nc(C(=O)NCCCn4ccnc4)cc3n2)cc1C`, the IC50 was 14.1 µM (inactive).

Take `Cc1ccc(CCC(=O)Nc2ccccc2F)s1`: the IC50 was 26.2 µM (inactive).

Turning to `COc1ccccc1-c1nnc(-c2ccc(C)cc2)o1`, the IC50 is 6.42 µM.

Regarding `O=C(OCC#CCSc1nnc(-c2ccccc2)o1)c1ccco1`, the IC50 is 1.44 µM.

In the case of `O=C(CN1CCN(c2ccccc2)CC1)Nc1nnc(-c2ccccc2)s1`, the IC50 was 9.53 µM.

In the case of `Cc1ccc(-c2noc(CCC(=O)Nc3cccc(C#N)c3)n2)cc1`, the IC50 is 17.4 µM (inactive).

Turning to `Cc1noc2ncnc(Sc3ccccc3Cl)c12`, the IC50 is 16.4 µM (inactive).

`c1ccc(CSc2ccc(-c3ccccn3)nn2)cc1`: the IC50 was 8.02 µM.

As to `CC(=O)N(c1nnc(-c2ccc(C)cc2)s1)C1CCCC1`, the IC50 is 26.2 µM (inactive).

On to `COc1ccc(CCOC(=O)c2ccc(N)c([N+](=O)[O-])c2)cc1`, for which the IC50 is 12.3 µM (inactive).

As to `CCOC(=O)C(=CNNc1cccc(Cl)c1)C(=O)OCC`, the IC50 is 18.7 µM (inactive).

`O=C(O/N=C/c1ccc2c(c1)OCO2)c1ccc([N+](=O)[O-])cc1`: the IC50 was 11.6 µM (inactive).

Consider `CCCCNC(=O)N1CCc2ccccc2C1`, for which the IC50 was 5.03 µM.

For `COc1cc(/C=C2/C(=O)NN(c3cccc(C)c3)C2=O)ccc1OC(=O)c1ccco1`, the IC50 was 5.53 µM.

Turning to `COC(=O)c1ccc(Cn2cc(C(F)(F)F)cc([N+](=O)[O-])c2=O)cc1`, the IC50 is 1.7 µM.

For `Cc1cccc(OCC(O)Cn2c(=N)n(Cc3ccccc3)c3ccccc32)c1` (centres undefined), the IC50 was 20.4 µM (inactive).

Regarding `OC(COc1ccc2ccccc2c1Br)Cn1ccnc1` (centres undefined), the IC50 was 33 µM (inactive).

For `CCOc1cc(CNC(C)(C)CO)cc(Br)c1OCc1ccc(Cl)cc1Cl`, the IC50 was 10.8 µM (inactive).

Turning to `O=[N+]([O-])c1ccc2nc(SCc3cn4cc(Cl)ccc4n3)[nH]c2c1`, the IC50 is 8.17 µM.

In the case of `COc1cc(C(=O)ON=C2C=C(C)C(=O)C(C)=C2)cc(OC)c1OC`, the IC50 is 48.6 µM (inactive).

Take `COC(=O)c1ccc2c(c1O)C(=O)c1ccccc1C2=O`: the IC50 is 1.44 µM.

In the case of `O=C1NC(=O)C(=Cc2ccc(-c3ccc(Cl)cc3)o2)C(=O)N1`, the IC50 was below 0.1 µM.

As for `Cc1ccc(C2=NN(C)c3nc4ccccc4n3C2)cc1`, the IC50 was 18.7 µM (inactive).

Take `O=C(Nc1nnc(-c2ccc(Br)cc2)o1)c1ccco1`: the IC50 was 11.4 µM (inactive).

`O=C(COC(=O)c1ccc(Cl)s1)c1ccc[nH]1`: the IC50 is 6.38 µM.

As for `COc1ccc(/C=N/Nc2cc(C)nc(-n3nc(C)cc3C)n2)cc1`, the IC50 is 3.25 µM.

For the compound `CCOC(=O)C(=O)NC12CC3CC(CC(C3)C1)C2`, the IC50 was 6.5 µM.

On to `COc1ccc(N=N/C(=C\O)C(=O)c2ccco2)cc1`, for which the IC50 was 21.5 µM (inactive).

As for `O=c1oc2ccccc2c(Nc2ccccc2O)c1[N+](=O)[O-]`, the IC50 is 8.58 µM.

`CCCn1c(=O)c(C(=O)N/N=C/c2ccccc2F)c(O)c2ccccc21`: the IC50 was 13.3 µM (inactive).

Regarding `O=C(COc1ccccc1)NCCSCc1ccc(Cl)cc1`, the IC50 is 16.4 µM (inactive).

In the case of `Cc1nc(-c2ccc(C(F)(F)F)cc2)sc1C(=O)NN`, the IC50 was 23.5 µM (inactive).

In the case of `CSc1ccc(C(=O)C2CCCN(C(=O)c3ccc4c(c3)no[n+]4[O-])C2)cc1` (centres undefined), the IC50 is 4.03 µM.

For `CCCOc1ccc(C(=O)NNC(=S)NC(=O)c2cccs2)cc1`, the IC50 is 0.46 µM.

On to `COc1cc(CNCCc2c[nH]c3ccccc23)ccc1OCc1ccc(F)cc1`, for which the IC50 is 11.5 µM (inactive).

In the case of `CCCCNS(=O)(=O)c1ccc(OCC(=O)OC)cc1`, the IC50 was 15.6 µM (inactive).

On to `CCCn1c(NC(=O)c2ccccc2)nc2ccccc21`, for which the IC50 was 8.74 µM.

For the compound `CC1(O)CC(c2ccc(Cl)cc2)=NN1C(=O)c1ccc([N+](=O)[O-])cc1` (centres undefined), the IC50 was 0.18 µM.

On to `CCn1nnc(NC(=O)c2sc3ccccc3c2Cl)n1`, for which the IC50 is 28.5 µM (inactive).

For the compound `CN1c2ccsc2/C(=N/Nc2ccccc2)CS1(=O)=O`, the half-inhibitory concentration (IC50) is 0.29 µM.

Turning to `CC(C)=CCN1CCN(Cc2cn(C(C)C)c3ccccc23)CC1CCO` (centres undefined), the IC50 is 22.1 µM (inactive).

For `C=C[C@]1(C)C=C2CCC3[C@](C)(CCC[C@@]3(C)C(=O)O)C2CC1` (some centres undefined), the IC50 is 6.33 µM.

`O=C(NNC(=O)c1ccccn1)c1cccc([N+](=O)[O-])c1`: the IC50 was 11 µM (inactive).

In the case of `CCOC(=O)C(C)Oc1ccc(OCc2ccccc2)cc1` (centres undefined), the IC50 was 2.24 µM.

In the case of `Brc1c(-c2ccc3c(c2)OCO3)nc2ncccn12`, the IC50 was 1.1 µM.

Take `Cc1nc2scc(-c3ccccc3)c2c(=O)o1`: the IC50 is 14.8 µM (inactive).

Take `COc1ccc(OCCSc2nnc(Cc3cccc4ccccc34)n2N)cc1`: the IC50 is 23.6 µM (inactive).

`C/C(CC(=O)Nc1ccc(N(C)C)cc1)=N\NC(=O)c1ccncc1`: the IC50 is 0.3 µM.

In the case of `COc1cc(CNC2CCCC2)cc(Cl)c1OCc1ccccc1Cl`, the IC50 is 9.58 µM.

Turning to `COc1ccc(Nc2cc(C)nc(-n3nc(C)cc3C)n2)cc1`, the half-maximal inhibitory concentration (IC50) was 4.02 µM.

As for `O=C(Oc1cccc([N+](=O)[O-])c1)c1ccc2c(=O)n3c(nc2c1)CCC3`, the IC50 was 6.82 µM.

With `CC(/C=C/c1cccc([N+](=O)[O-])c1)=N\NC(=O)c1ccncc1`, the IC50 was 1.2 µM.

Take `Cc1cc(C)n(-c2nc(NCCN(C)C)c3c4c(sc3n2)CCCC4)n1`: the IC50 is 9.66 µM.

`Cc1ccc(-c2ccc(/C=N/NC(=O)CN3CCOCC3)o2)cc1[N+](=O)[O-]`: the IC50 was 32.2 µM (inactive).

As for `COc1cccc(-c2nc(C=O)cs2)c1`, the IC50 was 37.2 µM (inactive).

With `O=C(N/N=C1\CCCc2c1[nH]c1ccc(Cl)cc21)c1ccncc1`, the IC50 is 1.78 µM.

As to `O=C(NCCSc1ccccc1)c1ccc(Br)cc1`, the IC50 is 32.1 µM (inactive).

Consider `COc1ccc(-c2cc(=O)oc(-c3cccc(C)c3)n2)cc1`, for which the IC50 was 8.24 µM.

Consider `CN1C2CCC1/C(=C/c1ccccn1)C(=O)/C2=C\c1ccccn1`, for which the IC50 is 16.3 µM (inactive).

For the compound `Cc1ccc(C(=O)CCC2CCCC2=O)cc1` (centres undefined), the IC50 was 14.4 µM (inactive).

Regarding `CN(C)CCCNc1nc2sc3c(c2c(=O)n1CCc1ccccc1)CCCCC3`, the IC50 is 12 µM (inactive).

`Cc1nnc(NC(=O)c2ccc3ccccc3c2)o1`: the IC50 was 1.55 µM.

For `COC(=O)c1cn(NC(=O)c2cnccn2)c(=O)c2ccccc12`, the IC50 was 8.67 µM.

As to `Cc1ccc(CCC(=O)Nc2cc(Cl)ccc2Cl)o1`, the IC50 is 3.79 µM.

For the compound `N#Cc1ccc(CSc2nnc(-c3cccnc3)o2)cc1`, the IC50 was 11.5 µM (inactive).

In the case of `O=C(Nc1cccnc1)c1ccc(-c2ccc(Cl)cc2)o1`, the IC50 was 5.13 µM.

`Nc1ccc(Br)c2cccnc12`: the IC50 was 15.8 µM (inactive).

Take `COc1ccc(C(C)NC(=O)CCc2ccccc2)cc1` (centres undefined): the IC50 is 34.9 µM (inactive).

Consider `COc1cccc(-c2nnc(NC(=O)c3cccc(F)c3)o2)c1`, for which the IC50 was 11.1 µM (inactive).

Take `Cc1ccc(NC(=O)ON=C2CCCC2)cc1`: the IC50 was 1.97 µM.

For `COc1ccccc1/C=C/C=N/NC(=O)c1ccncc1`, the IC50 is 1.08 µM.

As to `COc1cc(/C=N/NC(=O)c2ccncc2)ccc1OC(=O)c1cccc(F)c1`, the IC50 is 3.53 µM.

In the case of `Cc1ccc(-c2nnc(COC(=O)c3cccs3)o2)cc1`, the IC50 is 13.8 µM (inactive).

For the compound `CCCOC(=O)c1ccc(OC(=O)c2ccco2)cc1`, the IC50 is 21.9 µM (inactive).

For `CC(C)(C)NC(=O)C(=O)NNC(=O)COc1ccc(Br)cc1`, the IC50 is 12 µM (inactive).

For `Cc1ccc(OCCCCn2ccnc2)c([N+](=O)[O-])c1`, the IC50 is 28.5 µM (inactive).

Take `COC(=O)c1ccc(C(=O)NC2CC(C)(C)Cc3c2cnn3-c2ccc(F)cc2)nc1` (centres undefined): the IC50 is 15.7 µM (inactive).

For `O=C(NCc1ccc(F)cc1)c1cnccn1`, the IC50 is 3.86 µM.

Consider `Cc1ccc(C)c(NC(=O)COC(=O)c2cc3ccccc3oc2=O)c1`, for which the IC50 was 17 µM (inactive).

In the case of `CCOC(=O)Cn1c2ccc(F)cc2c2nc(C)sc21`, the IC50 is 13.8 µM (inactive).

For `CC(=O)N(Cc1ccc(F)cc1)C1=C(NCCc2ccccc2)C(=O)c2ccccc2C1=O`, the IC50 was 4.4 µM.

In the case of `Cc1ccc(NC(=O)CNc2ccc(OC(C)C)cc2)cc1`, the IC50 was 4.11 µM.

For the compound `COc1cc(NC(=O)C/C(C)=N/NC(=O)c2cccs2)c(OC)cc1Cl`, the IC50 is 7.93 µM.

In the case of `CC(/C=C/c1ccccc1F)=N\NC(=O)c1ccccc1`, the IC50 is 3.87 µM.

Consider `Cc1cccnc1NC(=O)c1c(O)c2ccccc2n(C)c1=O`, for which the IC50 is 32 µM (inactive).

`O=C(OCC(=O)N1CCN(c2ccccc2)CC1)c1ccc2ccccc2n1`: the IC50 was 8.13 µM.

For `Cc1occc1-c1nnc(-c2cc([N+](=O)[O-])cc([N+](=O)[O-])c2)o1`, the IC50 is 1.56 µM.

For the compound `CC(=O)Oc1c(-c2ccco2)oc2ccccc2c1=O`, the IC50 was 10.6 µM (inactive).

`COC(=O)COc1ccc(S(=O)(=O)NCc2ccc3c(c2)OCO3)cc1`: the IC50 is 14.3 µM (inactive).
